In PMC4066849 (Structure (London, England : 1993), 2014):

What was measured:
Drp1 = Drp1 (Mus musculus, UniProt Q8K1M6); assay: GTP hydrolysis by purified Drp1; format: biochemical
MiD51 = MiD51 (Mus musculus, UniProt Q8BGV8); assay: fluorescence anisotropy equilibrium titration; format: binding
Chain of MiD51 (Q8BGV8 134-463): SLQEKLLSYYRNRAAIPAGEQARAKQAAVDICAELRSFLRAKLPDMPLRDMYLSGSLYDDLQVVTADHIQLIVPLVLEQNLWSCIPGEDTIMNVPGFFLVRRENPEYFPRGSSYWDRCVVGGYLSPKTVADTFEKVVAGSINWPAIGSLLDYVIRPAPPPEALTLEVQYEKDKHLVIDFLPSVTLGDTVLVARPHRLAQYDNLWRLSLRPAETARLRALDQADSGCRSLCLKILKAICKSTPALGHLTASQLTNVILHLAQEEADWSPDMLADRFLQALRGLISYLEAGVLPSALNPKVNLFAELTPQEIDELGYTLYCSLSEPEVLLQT

Chain of Drp1 (Q8K1M6 whole entry): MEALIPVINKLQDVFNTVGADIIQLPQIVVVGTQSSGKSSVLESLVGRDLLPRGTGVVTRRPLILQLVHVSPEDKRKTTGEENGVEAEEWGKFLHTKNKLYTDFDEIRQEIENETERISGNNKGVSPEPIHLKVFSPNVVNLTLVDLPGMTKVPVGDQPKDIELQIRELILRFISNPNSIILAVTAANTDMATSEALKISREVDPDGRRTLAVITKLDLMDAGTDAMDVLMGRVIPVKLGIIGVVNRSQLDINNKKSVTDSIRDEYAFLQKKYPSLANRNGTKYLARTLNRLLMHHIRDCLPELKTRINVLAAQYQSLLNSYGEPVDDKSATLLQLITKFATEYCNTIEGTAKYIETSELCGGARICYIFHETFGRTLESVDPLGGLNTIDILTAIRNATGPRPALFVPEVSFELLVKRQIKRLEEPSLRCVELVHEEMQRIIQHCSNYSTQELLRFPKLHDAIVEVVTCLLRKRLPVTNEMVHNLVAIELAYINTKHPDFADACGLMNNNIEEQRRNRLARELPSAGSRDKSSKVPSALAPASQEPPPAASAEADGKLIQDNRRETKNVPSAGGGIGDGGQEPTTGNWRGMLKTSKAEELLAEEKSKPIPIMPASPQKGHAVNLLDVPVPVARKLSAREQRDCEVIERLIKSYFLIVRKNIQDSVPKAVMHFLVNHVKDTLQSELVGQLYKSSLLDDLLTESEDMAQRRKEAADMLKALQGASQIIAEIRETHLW

Structure (SMILES)	GTP hydrolysis by purified Drp1 ([γ-32P]-GTP, thin-layer chromatography); abolis (Drp1)	Kd (MiD51)
Nc1nc2c(ncn2[C@@H]2O[C@H](COP(=O)(O)OP(=O)(O)OP(=O)(O)O)[C@@H](O)[C@H]2O)c(=O)[nH]1 [GTP]	~ 1.5 molecules of GTP per minute	
CNc1ccccc1C(=O)O[C@H]1[C@@H](O)[C@H](n2cnc3c(=O)[nH]c(N)nc32)O[C@@H]1COP(=O)(O)OP(=O)(O)O [MANT-GDP]		8 µM
